Data reported in paper PMC5464342 (Pharmacology Research & Perspectives, 2017).
Like-named read-outs stand apart in the source and are kept apart here.

Columns and labels:
[1] = molecular target: T1, wild type aromatase (CYP19A1*1) (Homo sapiens, UniProt P11511); experiment: Anti-aromatase activity assay, estrone formation by UPLC/MS/MS, microsomes of HEK293 overexpressing wild type aromatase; format: biochemical
T1 sequence (P11511 1-503): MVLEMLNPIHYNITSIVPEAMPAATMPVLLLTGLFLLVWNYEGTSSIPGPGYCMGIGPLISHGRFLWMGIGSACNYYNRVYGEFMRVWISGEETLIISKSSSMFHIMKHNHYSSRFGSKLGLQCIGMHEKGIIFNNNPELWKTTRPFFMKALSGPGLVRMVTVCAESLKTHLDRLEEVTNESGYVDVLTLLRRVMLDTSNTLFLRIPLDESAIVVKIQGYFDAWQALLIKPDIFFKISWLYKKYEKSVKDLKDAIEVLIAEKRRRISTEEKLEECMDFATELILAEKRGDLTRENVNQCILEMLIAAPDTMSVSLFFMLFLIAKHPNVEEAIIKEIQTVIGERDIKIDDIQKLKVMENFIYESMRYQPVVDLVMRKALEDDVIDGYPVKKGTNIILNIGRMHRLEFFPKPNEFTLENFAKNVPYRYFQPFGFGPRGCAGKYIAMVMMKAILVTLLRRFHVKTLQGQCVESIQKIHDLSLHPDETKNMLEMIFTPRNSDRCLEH

[2] = EXE metabolite identification in human liver microsomes by UPLC/MS/MS; format: in vitro ADME; settings: 50 μg HLM, 400 μmol/L EXE, NADPH regeneration system, 37°C, 4 h; for identified as phase I EXE metabolite in incubations of EXE with pooled human liver microsomes: comparison to reference compounds
aromatase = tested on: aromatase; parameters: method as in Buzzetti et al. 1993; settings: ref Buzzetti et al. 1993; cited from earlier work

C[C@]12C=CC(=O)C=C1C(CO)=CC1C2CC[C@]2(C)C(=O)CCC12 (some centres unmarked) [6-hydroxymethylandrosta-1,4,6-triene-3,17-dione]
IC50 [1]: 61 ± 20 µM
fold less potent than EXE (wild type aromatase) ([1]; ratio of IC50 values versus EXE): 67 fold
identified as phase I EXE metabolite in incubations of EXE with pooled human liver microsomes [2]: identified

C[C@]12C=CC(=O)C=C1[C@@]1(CO1)CC1C2CC[C@]2(C)C(=O)CCC12 (stereo partly drawn) [6α-spirooxiranandrosta-1,4-diene-3,17-dione]
IC50 [1]: 1.2 ± 0.19 µM
fold more potency than its 6β stereoisomer (wild type aromatase) ([1]; ratio of IC50 values versus 6β-spirooxiranandrosta-1,4-diene-3,17-dione): ~5 fold

C[C@]12C=CC(=O)C=C1[C@]1(CO1)CC1C2CC[C@]2(C)C(=O)CCC12 (stereo partly drawn) [6β-spirooxiranandrosta-1,4-diene-3,17-dione]
IC50 [1]: 5.7 ± 1.6 µM

C=C1CC2C(CC[C@@]3(C)C2CC[C@@H]3O)[C@@]2(C)C=CC(=O)C=C12 (stereo partly drawn) [17β-dihydroexemestane]
abundance of the EXE metabolite formed in human liver microsomes [2]: predominant EXE metabolite
identified as phase I EXE metabolite in incubations of EXE with pooled human liver microsomes [2]: identified
fold less potent than EXE (earlier study) (aromatase): approximately 2.6 fold

C[C@]12C=CC(=O)C=C1C(O)(CO)CC1C2CC[C@@]2(C)C1CC[C@@H]2O (stereo partly drawn) [6α/β,17β-dihydroxy-6α/β-hydroxymethylandrosta-1,4-diene-3-one]
IC50 [1]: > 100 µM
identified as phase I EXE metabolite in incubations of EXE with pooled human liver microsomes [2]: identified

C[C@]12CC[C@H]3[C@@H](C=C(CO)C4=CC(=O)C=C[C@@]43C)[C@@H]1CC[C@@H]2O [17β-hydroxy-6-hydroxymethylandrosta-1,4,6-triene-3-one]
IC50 ([1]; 15 μg HEK293 microsomes, 5 μmol/L androstenedione, NADPH regeneration system, 37°C, 2 h, read-out: IC50 for wild-type aromatase): > 100 µM

C[C@]12C=CC(=O)C=C1C(O)(CO)CC1C2CC[C@]2(C)C(=O)CCC12 (stereo partly drawn) [6α/β-hydroxy-6α/β-hydroxymethylandrosta-1,4-diene-3,17-dione]
IC50 [1]: > 100 µM
identified as phase I EXE metabolite in incubations of EXE with pooled human liver microsomes [2]: identified
